The source of these data is patent publication US6696427B1, “Use of bisphosphonates for the prevention and treatment of infectious processes” (Jomaa Pharmaka GmbH, priority 1998, dated 2004).

This test deals with γδ-T cells. Description: activatability of γδ-T cells in mononuclear cells isolated from blood of treated test subjects. The test is classed as in vivo, human. As to the method: […] After the third infusion, a blood sample was taken from the subjects. The mononuclear cells were isolated from the blood. The activatability of the γδ-T cells was then tested. A full description is published in Jomaa et al. FEMS Immunol. Med. Microbiol. September 1999; 25(4); 371-8.
In contrast, cells from control subjects could be activated.

On to `CCCCCN(C)CCC(O)(P(=O)(O)O)P(=O)(O)O` [ibandronic acid, 3-methylpentylamino-1-hydroxypropylidene-1,1-bisphosphonic acid], for which the “γδ-T cell activation by antigens obtained from microorganisms” value (test subjects, 1 mg per treatment, protocol from Example 1) was “no γδ-T cell activation”. As for `NCCC(O)(P(=O)(O)O)P(=O)(O)O` [pamidronic acid, 3-amino-1-hydroxypropylidene-1,1-bisphosphonic acid], the “γδ-T cell activation by antigens obtained from microorganisms” value (healthy test subjects, infusion of 90 mg at fortnightly intervals, blood sample after the third infusion, isolated mononuclear cells) is reported as “no γδ-T cell activation”.
